Tests used:
[1] = Stability of alpha-dicarbonyl metabolites under reaction conditions; type: in vitro ADME; settings: low (50 μM) and high (500 μM) concentrations; student's t-test p < 0.05
[2] = target: T1, microsomal epoxide hydrolase (Homo sapiens, UniProt P07099); type: in vitro ADME; settings: 1 μM elaidamide; 40 and 400 μM substrate; HLM
T1 sequence (P07099 1-455): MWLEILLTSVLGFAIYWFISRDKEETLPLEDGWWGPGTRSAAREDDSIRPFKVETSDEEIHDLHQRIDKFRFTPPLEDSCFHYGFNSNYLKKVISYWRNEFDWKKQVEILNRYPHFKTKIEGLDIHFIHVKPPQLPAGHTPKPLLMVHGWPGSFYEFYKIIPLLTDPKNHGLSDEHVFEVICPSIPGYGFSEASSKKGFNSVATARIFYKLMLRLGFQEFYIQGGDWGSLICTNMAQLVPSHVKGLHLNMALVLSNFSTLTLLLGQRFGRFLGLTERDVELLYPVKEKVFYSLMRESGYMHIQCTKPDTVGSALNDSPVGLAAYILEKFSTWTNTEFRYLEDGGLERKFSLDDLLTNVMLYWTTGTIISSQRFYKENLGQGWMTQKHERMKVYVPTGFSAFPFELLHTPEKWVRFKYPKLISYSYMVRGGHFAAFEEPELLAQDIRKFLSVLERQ

inhibition of alpha-dicarbonyl formation by elaidamide [2] [%]	Structure (SMILES)	depletion under reaction conditions [1]
–	O=CC=O [glyoxal]	no significant depletion
–	CC(=O)C=O [methylglyoxal]	only significant depletion after 60 min
90	CN1C(C(=O)Nc2nccs2)=C(O)c2ccccc2S1(=O)=O [sudoxicam, N-(2-thiazolyl)-4-hydroxy-2-methyl-2H-1,2-benzothiazine-3-carboxamide 1,1-dioxide]	–
